From patent EP4745134A1 (Jiangsu Yahong Meditech Co., Ltd., priority 2023, dated 2025)
Where two headings read alike, the source gives them in different places.

Assays:
HCT116-WT cells = assay: Inhibitory activity against cell proliferation (CellTiter Glo, 6 days), HCT116-WT; format: cell-based; conditions: 144 h
In short: (§1)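 HCT116 wild-type or MTAP-knockout cells (250/well, McCoy's 5A + 10% FBS) treated after overnight culture with 8-point 4-fold dilutions from 10000 nM for 6 days at 37 °C. Viability read by CellTiter Glo luminescence on day 7; IC50 calculated against DMSO controls.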

HCT116 MTAP KO cells = assay: Inhibitory activity against cell proliferation (CellTiter Glo, 6 days), HCT116 MTAP KO; format: cell-based; conditions: for IC50: Homo sapiens, HCT-116, 144 h; for Selectivity HCT 116-WT/ HCT116 MTAP KO: ratio of IC50 HCT116-WT / HCT116 MTAP KO
In short: as §1

PRMT5-MTA = PRMT5-MTA (Homo sapiens, UniProt O14744); assay: Enzymatic inhibitory activity against PRMT5-MTA (AlphaScreen); format: biochemical
In short: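 PRMT5/[…] (1 nM) was preincubated for 30 min at room temperature with 1 µM […] and 2.5 µM SAM, then exposed to compound (10-point, 3-fold from 1000 nM) for 15 min at 23 °C. Histone H4 substrate (5 nM) was added and reacted for 45 min at 23 °C. Symmetric dimethyl-R3 H4 was detected by AlphaScreen and IC50 calculated.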

[1] = HCT116-WT cells, 6 days, CellTiter Glo, read-out: HCT116-WT IC50
[2] = HCT116 MTAP KO cells, 6 days, CellTiter Glo, read-out: HCT116 MTAP KO IC50

PRMT5-MTA, sequence (O14744 whole entry): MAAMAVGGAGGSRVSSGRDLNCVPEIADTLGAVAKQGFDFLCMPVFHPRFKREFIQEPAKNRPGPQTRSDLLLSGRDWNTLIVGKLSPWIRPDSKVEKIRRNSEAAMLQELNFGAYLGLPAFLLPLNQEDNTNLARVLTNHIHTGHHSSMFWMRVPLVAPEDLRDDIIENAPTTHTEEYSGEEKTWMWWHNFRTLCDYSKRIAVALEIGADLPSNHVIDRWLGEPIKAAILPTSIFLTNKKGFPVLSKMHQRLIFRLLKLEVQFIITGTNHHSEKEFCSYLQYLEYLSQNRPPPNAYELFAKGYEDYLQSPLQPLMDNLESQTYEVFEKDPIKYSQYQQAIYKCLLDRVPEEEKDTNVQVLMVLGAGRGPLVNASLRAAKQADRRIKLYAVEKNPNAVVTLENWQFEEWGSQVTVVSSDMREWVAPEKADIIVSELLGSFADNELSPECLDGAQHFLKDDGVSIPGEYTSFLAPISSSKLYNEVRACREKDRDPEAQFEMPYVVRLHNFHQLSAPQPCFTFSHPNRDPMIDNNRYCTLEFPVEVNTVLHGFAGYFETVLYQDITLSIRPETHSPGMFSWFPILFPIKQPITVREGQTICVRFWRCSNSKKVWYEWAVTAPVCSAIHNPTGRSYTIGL
PRMT5-MTA, sequence (Q9BQA1 whole entry partner): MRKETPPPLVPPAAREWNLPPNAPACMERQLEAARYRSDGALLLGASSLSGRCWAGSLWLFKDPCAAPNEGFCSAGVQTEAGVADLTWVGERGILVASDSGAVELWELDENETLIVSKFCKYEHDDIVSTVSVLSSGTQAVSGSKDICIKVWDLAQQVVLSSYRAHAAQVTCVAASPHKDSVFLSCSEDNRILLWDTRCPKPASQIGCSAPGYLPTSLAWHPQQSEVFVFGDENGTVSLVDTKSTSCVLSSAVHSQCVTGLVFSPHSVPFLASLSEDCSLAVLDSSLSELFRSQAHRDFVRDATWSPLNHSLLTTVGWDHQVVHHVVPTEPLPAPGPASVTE

Row | Compound | IC50 (HCT116-WT cells; [1]) [nM] | IC50 (HCT116 MTAP KO cells; [2]) [nM] | Selectivity HCT 116-WT/ HCT116 MTAP KO (HCT116 MTAP KO cells) | IC50 (PRMT5-MTA; read-out: IC50) [nM] | IC50 (HCT116-WT cells; read-out: HCT116-WT IC50 (nM)) [nM] | IC50 (HCT116 MTAP KO cells; read-out: HCT116 MTAP KO IC50 (nM)) [nM] | IC50 (PRMT5-MTA) [nM]
1 | Cc1cc2nc(N)c3cnn(C)c3c2cc1C(=O)N1CCCN1c1ncc(-c2cncs2)cc1F [Example 474, (4-amino-1,7-dimethyl-1H-pyrazolo[4,3-c]quinolin-8-yl)(2-(3-fluoro-5-(thiazol-5-yl)pyridin-2-yl)pyrazolidin-1-yl)methanone] | 929 | 28 | 33.18 | 7 |  |  | 
2 | Cc1cc2cc(C(=O)N(Cc3ccc(-c4ccn(C)n4)cn3)N(C)c3ncccn3)ccc2nc1N [Example 168, 2-amino-N',3-dimethyl-N-((5-(1-methyl-1H-pyrazol-3-yl)pyridin-2-yl)methyl)-N'-(pyrimidin-2-yl)quinoline-6-carbohydrazide] | 2570 | 194 | 13.26 | 2.6 |  |  | 
3 | [2H]C([2H])([2H])c1cc2cc(C(=O)N(Cc3ccc(-c4cncs4)cn3)N(C)c3ncccn3)ccc2nc1N [Example 318, 2-amino-N'-methyl-3-(methyl-D3)-N'-(pyrimidin-2-yl)-N-((5-(thiazol-5-yl)pyridin-2-yl)methyl)quinoline-6-carbohydrazide] | 338 | 16 | 21.13 | 6.3 |  |  | 
4 | Cc1cc2nc(N)c3cnn(C)c3c2cc1C(=O)N1CC(C)CN1c1cc(F)ccn1 (centres unmarked) [Example 372, (4-amino-1,7-dimethyl-1H-pyrazolo[4,3-c]quinolin-8-yl)(2-(4-fluoropyridin-2-yl)-4-methylpyrazolidin-1-yl)methanone] | 2520 | 83 | 30.42 | 3.4 |  |  | 
5 | Cc1cc2nc(N)c3cnn(C)c3c2cc1C(=O)N1CCCN1c1ccc(C2CC2)cn1 [Example 468, (4-amino-1,7-dimethyl-1H-pyrazolo[4,3-c]quinolin-8-yl)(2-(5-cyclopropylpyridin-2-yl)pyrazolidin-1-yl)methanone] | 4340 | 180 | 24.09 | 3.2 |  |  | 
6 | Cc1cc2nc(N)c3cnn(C)c3c2cc1C(=O)N1CCCN1c1ncc(-c2ccc(N3CCN(C)CC3)nc2)cc1F [Example 478] |  |  | 26.01 |  | 4320 | 166 | 19
7 | Cc1cc2cc(C(=O)N(Cc3ccc(-c4cnn(C)c4)cn3)N(C)c3ncccc3F)ccc2nc1N [Example 179, 2-amino-N'-(3-fluoropyridin-2-yl)-N',3-di methyl-N-((5-(1-methyl-1H-pyrazol-4-yl)pyridin-2-yl)methyl)quinoline-6-carbohy drazide] | 1320 | 64 | 20.56 | 3.4 |  |  | 
8 | Cc1cc2nc(N)c3cnn(C)c3c2cc1C(=O)N1CCCN1c1ncc(-c2cscn2)cc1F [Example 486, (4-amino-1,7-dimethyl-1H-pyrazolo[4,3-c]quinolin-8-yl)(2-(3-fluoro-5-(thiazol-4-yl)pyridin-2-yl)pyrazolidin-1-yl)methanone] | 1400 | 34 | 41.12 | 6.8 |  |  | 
9 | Cn1ncc2c(N)nc3cc(Cl)c(C(=O)N4CC(C)(F)CN4c4ncc(Cl)cc4F)cc3c21 (centres unmarked) [Example 421, (4-amino-7-chloro-1-methyl-1H-pyrazolo [4,3-c]quinolin-8-yl)(2-(5-chloro-3-fluoropyridin-2-yl)-4-fluoro-4-methylpyrazolidin-1-yl)methanone] | 669 | 29 | 23.07 | 3.3 |  |  | 
10 | Cc1cc2cc(C(=O)N(Cc3ccc(C(F)(F)F)cn3)N(C)c3ncccc3C(F)F)ccc2nc1N [Example 117, 2-amino-N'-(3-(difluoromethyl)pyridin-2-yl)-N',3-dimethyl-N-((5-(trifluoromethyl)pyridin-2-yl)methyl)quinoline-6-carbohydrazide] | 1250 | 89 | 14.00 | 1.8 |  |  | 
11 | Cc1cc2cc(C(=O)N(Cc3ccc(C(F)(F)F)cn3)N(c3nccc4nccnc34)C3CC3)ccc2nc1N [Example 65, 2-amino-N'-cyclopropyl-3-methyl-N'-(pyrido[3,4-b]pyrazin-5-yl)-N-((5-(trifluoromethyl)pyridin-2-yl)methyl)quinoline-6-carbohydrazide] | 2150 | 48 | 44.77 | 4 |  |  | 
12 | Cc1cc2cc(C(=O)N(Cc3ccc(-c4cnc(N5CCN(C)CC5)nc4)cn3)N(C)c3ncccn3)ccc2nc1N [Example 147, 2-amino-N',3-dimethyl-N-((5-(2-(4-methylpiperazin-1-yl)pyrimidin-5-yl)pyridin-2-yl)methyl)-N'-(pyrimidin-2-yl)quinoline-6-carbohydrazide] | 1380 | 46 | 29.93 | 2.2 |  |  | 
13 | Cc1cc2nc(N)c3cnn(C)c3c2cc1C(=O)N1CC(C)CN1c1ccc(OC(F)(F)F)cn1 (centres unmarked) [Example 384, (4-amino-1,7-dimethyl-1H-pyrazolo[4,3-c]quinolin-8-yl)(4-methyl-2-(5-(trifluoromethoxy)pyridin-2-yl)pyrazolidin-1-yl)m ethanone] | 3420 | 238 | 14.35 | 4.1 |  |  | 
14 | Cc1cc2nc(N)c3cnn(C)c3c2cc1C(=O)N1CC(C)CN1c1ncc(C#CCO)cc1F (centres unmarked) [Example 492, (4-amino-1,7-dimethyl-1H-pyrazolo[4,3-c]quinolin-8-yl)(2-(3-fluoro-5-(3-hydroxyprop-1-yn-1-yl)pyridin-2-yl)-4-methylpyrazolidin-1-yl)methanone] | 1940 | 37 | 52.49 | 3.3 |  |  | 
15 | Cc1ncc(-c2ccc(CN(C(=O)c3ccc4nc(N)c(C)cc4c3)N(C)c3ncccn3)nc2)s1 [Example 151, 2-amino-N',3-dimethyl-N-((5-(2-methylthiazol-5-yl)pyridin-2-yl)methyl)-N'-(pyrimidin-2-yl)quinoline-6-carbohydrazide] | 601 | 19 | 31.63 | 6.4 |  |  | 
16 | Cc1cc2cc(C(=O)N(Cc3ccc(C(F)(F)F)cn3)N(C)c3ncc4ccccc4n3)ccc2nc1N [Example 109, 2-amino-N',3-dimethyl-N'-(quinazolin-2-yl)-N-((5-(trifluoromethyl)pyridin-2-yl)methyl)quinoline-6-carbohydrazide] | 1070 | 74 | 14.41 | 1.2 |  |  | 
17 | Cc1cc2cc(C(=O)N(Cc3ccc(C(F)(F)F)cn3)N(C)c3ncc(F)cn3)ccc2nc1N [Example 95, 2-amino-N'-(5-fluoropyrimidin-2-yl)-N',3-dimethyl-N-((5-(trifluoromethyl)pyridin-2-yl)methyl)quinoline-6-carbohydrazide] | 2460 | 70 | 35.14 | 2.1 |  |  | 
18 | COC1CN(C(=O)c2cc3c(cc2Cl)nc(N)c2cnn(C)c23)N(c2cccc(F)c2F)C1 (centres unmarked) [Example 447, (4-amino-7-chloro-1-methyl-1H-pyrazolo [4,3-c]quinolin-8-yl)(2-(2,3-difluorophenyl)-4-methoxypyrazolidin-1-yl)methanone] | 315 | 24 | 13.13 | 6.8 |  |  | 
19 | COc1ncc(F)cc1-c1ccc(CN(C(=O)c2ccc3nc(N)c(C)cc3c2)N(C)c2ncccn2)nc1 [Example 161, 2-amino-N-((5'-fluoro-2'-methoxy-[3,3'-bipyridine]-6-yl)methyl)-N',3-dimethyl-N'-(pyrimidin-2-yl)quinoline-6-carbohydrazide] | 1780 | 87 | 20.48 | 1.7 |  |  | 
20 | COc1ccc(-c2ccc(CN(C(=O)c3ccc4nc(N)c(C)cc4c3)N(C)c3ncccn3)nc2)cn1 [Example 174, 2-amino-N-((6'-methoxy-[3,3'-bipyridine] -6-yl)methyl)-N',3-dimethyl-N'-(pyrimidin-2-yl)quinoline-6-carbohydrazide] | 1080 | 41 | 26.22 | 2.3 |  |  | 
